The text below walks through data of publication PMC12586598, “A novel long-acting C5a-blocking cyclic peptide prevents sepsis-induced organ dysfunction via effective blockade of the inflammatory cascade” (Signal Transduction and Targeted Therapy, 2025).

The term fraction remaining denotes what is left of the initial amount, in per cent. High values mean greater stability, low ones a greater loss.

The target in one series is T1, mouse C5a-desArg (Mus musculus, UniProt P06684).
T1 construct: mouse C5a-desArg (MCE, Shanghai, China); purchased MCE
T1 sequence (P06684 679-754 limits assumed): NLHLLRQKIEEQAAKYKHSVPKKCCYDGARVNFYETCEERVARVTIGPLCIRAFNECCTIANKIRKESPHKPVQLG
The series is described as follows: SPR binding affinity assay, immobilized mouse C5a-desArg. The protocol: Surface plasmon resonance (SPR) analysis was conducted using Biacore 2000 system (GE Healthcare, Germany) at 37°C in running buffer (20 mM Tris-HCl, pH 7.4, 150 mM NaCl, 5 mM KCl, 1 mM MgCl₂, 1 mM CaCl₂). The CM5 sensor chips (GE Healthcare) were activated with NHS/EDC, followed by immobilization of mouse C5a (ACROBiosystems, Beijing, China), human C5a (ACROBiosystems, Beijing, China), mouse C5 (ACROBiosystems, Beijing, China) or mouse C5a-desArg (MCE, Shanghai, China). The peptide-protein interactions were characterized using a concentration-gradient approach (low to high) with a continuous flow rate of 30 μL/min (150 s injection duration). Between analyte concentrations, the sensor surface was regenerated with 10 mM glycine-HCl (pH 2.0; 5 min treatment). Binding and dissociation constants were obtained by globally fitting the data to a 1:1 Langmuir binding model using a Biacore Insight evaluation software (Cytiva, USA).
A general note: In SPR one partner is held on a chip, and binding of the other changes the refractive index at the surface.

Series [1] concerns the target T2, Cy5-labeled mouse C5a protein (Mus musculus, UniProt P06684).
T2 construct: 10 ng of Cy5-labeled mouse C5a protein (MCE, Shanghai, China); purchased MCE; host or cells: mouse peripheral blood neutrophils (endogenous receptor)
T2 sequence (P06684 679-755): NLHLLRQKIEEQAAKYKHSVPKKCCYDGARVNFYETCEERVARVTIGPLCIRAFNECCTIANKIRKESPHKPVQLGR
The series is described as follows: Competitive binding assay by FCM (Cy5-C5a on mouse neutrophils). The series is classed as cell-based. Particulars: high (1 μg/mL) or low (10 ng/mL) concentrations. The protocol:
For the validation of peptide affinity for C5a. Peripheral blood neutrophils from the mice were isolated via density gradient centrifugation (Solarbio P9201, Beijing, China). A total of 10 ng of Cy5-labeled mouse C5a protein (MCE, Shanghai, China) was preincubated with linear peptides or cyclic peptides (10 or 100 ng) at room temperature for 0.5 h. Subsequently, 2×10^5 mouse neutrophils were incubated with Cy5-labeled mouse C5a or Cy5-labeled mouse C5a/peptide complexes at 4 °C for 0.5 h in the dark, followed by centrifugation, washing with PBS and flow cytometric analysis (Sony ID7000™, Japan).

The test system of the next series is PMNs. The series can be described thus: C5a-triggered chemotaxis assay, PMNs (IncuCyte). The format is cell-based, human. Particulars: 10 ng to 1 μg per well, 24 h. The method, then: The chemotaxis assay in this study was monitored and quantified by the IncuCyte ZOOM® Live-Cell Imaging System. The y-axis label “total area normalized to initial area in each group” in Fig. 3k, m represent the ratio of the total cell area at each time point to the initial area (0 h) within the same field of view. A higher ratio indicates […] cell migration activity.
One hundred nanograms of human C5a protein (ACROBiosystems, Beijing, China) was preincubated with linear or cyclic peptides at the indicated concentrations (10 ng, 100 ng, or 1 μg) in 1640 complete culture medium for 30 min. PMNs isolated by flow cytometric sorting for chemotaxis assays were purchased from Oribiotech Co., Ltd. (Shanghai, China). A total of 1 × 10^4 cells were added to the upper chamber of 96-well cell chemotaxis plates (Sartorius, Germany) and allowed to migrate at 37 °C for 24 h. The chemotactic response of neutrophils toward C5a with or without C5a-blocking peptides was quantified and analyzed via an IncuCyte ZOOM® Live-Cell Imaging System (Sartorius, Germany). The chemotactic response of mouse neutrophils was assessed following the established protocol for PMNs.

The subject of a further series is CLP model mice. The series is described as follows: cfDNA and neutrophil elastase in plasma of CLP mice. Particulars: 100 μg/20 g, 24 h after CLP surgery, relative to Sham set as 0%. The format is in vivo, mouse. The method, then:
To determine the levels of cfDNA and elastase in plasma, blood samples were collected, and plasma was prepared 24 h after CLP surgery. cfDNA was extracted via the VAHTS Serum/Plasma Circulating DNA Kit (Vazyme, Nanjing) and quantified via qPCR. Elastase was quantified via an NE ELISA Kit (Cusabio, Wuhan).

The test system of a further series is CLP-induced septic mice. The series can be described thus: Endothelial injury biomarkers and capillary leakage in CLP mice. The series is classed as in vivo, mouse. The following applies: 24 h post-CLP surgery. The protocol:
To evaluate microvascular leakage in the murine abdominal cavity, the mice received 100 μg of Cp1 via intravenous administration one hour after CLP surgery. Subsequently, 200 μL of 0.25% (w/v) Evans blue dye was injected intravenously for permeability quantification. Twenty-four hours later, the plasma and peritoneal lavage fluid (PLF) of the mice were collected and subjected to spectrophotometric measurement at 620 nm. To exclude hemoglobin interference, the serum absorbance values were corrected via the following formula: corrected A620 = A620 − (A405 × 0.014).[40] Vascular permeability was quantified by the A620 ratio of PLF to serum. To assess capillary leakage in pulmonary tissues, human plasma albumin (HSA) (1 mg/75 μL) was injected intravenously after CLP surgery and Cp1 administration. Twenty-four hours later, the HSA in the bronchoalveolar lavage fluid (BALF) and plasma samples was quantified via a HAS ELISA Kit (Cusabio, Wuhan), and the lung permeability index was calculated as the ratio of the HAS in the BALF to that in the plasma.
The cecal ligation and puncture (CLP) model was established in male C57BL/6 mice (9-10 weeks old). Briefly, a midline laparotomy was performed to exteriorize the cecum under general anesthesia. The cecum was ligated at the distal three-quarters using sutures. Subsequently, a single through-and-through puncture was made in the ligated segment using a 22-gaμge needle, followed by small volume of fecal content was gentle extrusion. The cecum was then repositioned within abdominal cavity, and the laparotomy incision was closed in layers. All animals were administered 1 mL of sterile saline for postoperative fluid resuscitation. Sham-operated controls underwent identical surgical procedures without cecal ligation or puncture. In this work, mice received administration via intravenous injection 1 hour after CLP surgery. The animal mortality was determined by the presence of confirmed death. […] Blood samples were collected 24 hours after CLP-modeling for hematological analysis (Mindray BC-60R Vet) and biochemical analysis (Mindray BS-240 Vet, China), endothelial injury analysis (Njjcbio, Nanjing) and coagulation analysis (Legene, Beijing). Subsequently, mice were sacrificed to collect the main organs for morphological and pathological analysis.

The nature of a further series: in vitro. Particulars: C57BL/6, mouse, plasma.

SMILES strings stand for the structures. Where a SMILES comes first, the peptide text is derived from it. Some results are limits rather than exact numbers.

Source text for in vitro: The peptides in the plasma were extracted with 15% TFA and quantified via reversed-phase high-performance liquid chromatography (HPLC) (Agilent 1260, USA).

For `CSCC[C@@H]1NC(=O)[C@@H]2CCCN2C(=O)[C@H](CCSC)NC(=O)[C@H](CO)NC(=O)[C@H](Cc2c[nH]cn2)NC(=O)CNC(=O)[C@H](CO)NC(=O)[C@H](Cc2ccccc2)NC(=O)[C@H](CCCNC(=N)N)NC(=O)[C@H](CCC(=O)O)NC(=O)[C@H](Cc2ccccc2)NC(=O)[C@H](C(C)C)NC1=O` [Cp1] (cyclo(HSMPMVFERFSG)), the kon at mouse C5a-desArg (pH 7.4, read-out: Ka vs mC5a-desArg (SPR)) was 2490 M⁻¹ s⁻¹. Besides, the koff on mouse C5a-desArg (read-out: Kd (dissociation rate) vs mC5a-desArg (SPR)) turned out to be 0.0089 s⁻¹. For the same compound, in series [1], the “blockade of Cy5-C5a binding to mouse neutrophils” value was “validated the blocking efficacy”. Besides, in the series with PMNs, the “suppression of C5a-driven recruitment of PMNs” value is listed as “dose-dependently suppressed”. The “decrease of plasma neutrophil elastase (NE)” value with CLP model mice (ELISA) is on record as 100%. Besides, the “decrease of plasma cfDNA” value in the series with CLP model mice (qPCR) stood at 68%. In addition, in the series with CLP-induced septic mice (100 μg/20 g), the “decrease of circulating E-selectin vs CLP group” value came to 71%, the “decrease of circulating PAI-1 vs CLP group” value was 93% and the “decrease of circulating VCAM-1 vs CLP group” value amounted to 100%. Also, in the series with CLP-induced septic mice (vs untreated CLP group), the “decrease of Evans blue leakage (PLF/Serum)” value is 54%, the “decrease of HAS leakage (BALF/Serum)” value is 83% and the “reduction in lung wet-to-dry weight ratio (W/D ratio)” value amounted to 85%. Besides, in “in vitro”, the fraction remaining at 24 h was > 95%.
